Ki data for 1 compound are collected here from ChEMBL document CHEMBL1131751, “Design and synthesis of 2-[4-[4-(m-(ethylsulfonamido)-phenyl) piperazin-1-yl]butyl]-1,3-dioxoperhydropyrrolo[1,2-c]imidazole (EF-7412) using neural networks. A selective derivative with mixed 5-HT1A/D2 antagonist properties” (Bioorg Med Chem Lett, 1999).

In one assay the target is D(2) dopamine receptor (Mus musculus, UniProt P61168). As to the kind of experiment: Binding affinity towards Dopamine receptor D2.
For assay [1], the target named is T1, Alpha-1 adrenergic receptor (Mus musculus, UniProt P97714+P97717+P97718).
T1 sequence (P97714 whole entry): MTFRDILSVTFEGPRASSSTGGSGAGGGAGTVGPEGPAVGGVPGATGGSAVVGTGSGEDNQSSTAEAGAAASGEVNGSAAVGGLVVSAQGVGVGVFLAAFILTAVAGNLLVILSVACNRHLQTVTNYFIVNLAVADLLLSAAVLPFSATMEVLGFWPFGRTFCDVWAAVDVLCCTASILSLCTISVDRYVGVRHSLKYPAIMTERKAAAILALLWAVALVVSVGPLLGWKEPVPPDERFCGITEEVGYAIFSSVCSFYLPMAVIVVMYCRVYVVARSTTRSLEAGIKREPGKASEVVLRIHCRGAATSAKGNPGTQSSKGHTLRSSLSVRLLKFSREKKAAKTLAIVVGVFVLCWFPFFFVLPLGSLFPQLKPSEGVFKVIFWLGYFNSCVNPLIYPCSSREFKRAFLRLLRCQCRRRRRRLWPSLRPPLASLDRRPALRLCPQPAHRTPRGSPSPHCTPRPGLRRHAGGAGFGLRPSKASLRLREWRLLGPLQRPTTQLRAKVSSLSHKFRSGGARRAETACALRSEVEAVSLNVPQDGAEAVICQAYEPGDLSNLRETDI
T1 sequence (P97717 whole entry): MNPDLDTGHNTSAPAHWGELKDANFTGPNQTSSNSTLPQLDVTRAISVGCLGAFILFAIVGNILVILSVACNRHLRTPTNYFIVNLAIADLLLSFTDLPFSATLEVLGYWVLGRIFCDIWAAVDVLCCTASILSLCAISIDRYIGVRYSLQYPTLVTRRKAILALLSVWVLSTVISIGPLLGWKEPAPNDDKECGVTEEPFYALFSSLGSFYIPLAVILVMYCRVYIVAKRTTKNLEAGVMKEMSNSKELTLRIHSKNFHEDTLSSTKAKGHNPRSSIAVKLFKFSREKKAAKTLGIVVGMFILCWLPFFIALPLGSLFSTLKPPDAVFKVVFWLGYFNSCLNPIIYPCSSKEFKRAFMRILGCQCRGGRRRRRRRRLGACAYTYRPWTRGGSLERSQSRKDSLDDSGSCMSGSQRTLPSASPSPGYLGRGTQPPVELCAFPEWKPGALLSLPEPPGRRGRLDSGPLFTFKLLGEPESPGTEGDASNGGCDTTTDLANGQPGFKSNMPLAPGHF
T1 sequence (P97718 whole entry): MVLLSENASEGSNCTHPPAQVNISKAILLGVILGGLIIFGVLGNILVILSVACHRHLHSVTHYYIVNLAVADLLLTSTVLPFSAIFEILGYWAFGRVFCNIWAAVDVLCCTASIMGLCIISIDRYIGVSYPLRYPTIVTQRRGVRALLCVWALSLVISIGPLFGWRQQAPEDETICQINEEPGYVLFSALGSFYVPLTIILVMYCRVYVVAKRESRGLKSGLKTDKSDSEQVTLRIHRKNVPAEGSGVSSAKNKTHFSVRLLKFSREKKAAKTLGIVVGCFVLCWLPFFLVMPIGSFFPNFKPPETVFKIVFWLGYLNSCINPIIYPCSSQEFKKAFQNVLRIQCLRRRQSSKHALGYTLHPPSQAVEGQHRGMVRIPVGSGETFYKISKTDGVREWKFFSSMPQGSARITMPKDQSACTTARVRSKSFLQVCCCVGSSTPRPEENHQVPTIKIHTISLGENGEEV
Briefly: Binding affinity towards Alpha-1 adrenergic receptor. The format is protein assay.

Assay [2] addresses T2, 5-hydroxytryptamine receptor 1A (Mus musculus, UniProt Q64264).
T2 sequence (Q64264 whole entry): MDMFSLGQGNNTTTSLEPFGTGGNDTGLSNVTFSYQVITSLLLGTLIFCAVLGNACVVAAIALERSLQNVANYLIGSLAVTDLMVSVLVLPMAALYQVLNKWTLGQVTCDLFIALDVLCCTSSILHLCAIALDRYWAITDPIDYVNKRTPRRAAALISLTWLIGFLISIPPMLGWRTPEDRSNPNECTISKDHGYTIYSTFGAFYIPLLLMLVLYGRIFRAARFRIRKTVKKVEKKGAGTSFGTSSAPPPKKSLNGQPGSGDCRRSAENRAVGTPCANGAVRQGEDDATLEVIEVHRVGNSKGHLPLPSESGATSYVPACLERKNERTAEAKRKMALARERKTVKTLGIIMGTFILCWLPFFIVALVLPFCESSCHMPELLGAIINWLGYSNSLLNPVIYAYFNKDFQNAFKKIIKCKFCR
As to the kind of experiment: Binding affinity towards 5-HT1A receptor.

Sequence of D(2) dopamine receptor (P61168 whole entry): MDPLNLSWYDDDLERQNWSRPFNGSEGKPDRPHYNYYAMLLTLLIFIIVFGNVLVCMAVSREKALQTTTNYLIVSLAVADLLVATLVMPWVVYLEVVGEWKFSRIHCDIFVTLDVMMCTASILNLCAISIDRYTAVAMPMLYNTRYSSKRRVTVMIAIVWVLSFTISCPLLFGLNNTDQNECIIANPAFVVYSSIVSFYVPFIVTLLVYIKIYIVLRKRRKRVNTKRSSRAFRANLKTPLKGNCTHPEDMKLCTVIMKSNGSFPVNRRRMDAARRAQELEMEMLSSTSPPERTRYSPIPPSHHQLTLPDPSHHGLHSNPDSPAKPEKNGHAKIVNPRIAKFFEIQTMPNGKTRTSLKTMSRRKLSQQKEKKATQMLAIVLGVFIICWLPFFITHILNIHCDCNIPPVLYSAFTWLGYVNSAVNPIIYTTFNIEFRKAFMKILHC

In general, Ki refers to a measure of affinity in units of concentration, obtained from inhibition or displacement. A high value points to lower affinity. For `CCS(=O)(=O)Nc1cccc(N2CCN(CCCCN3C(=O)C4CCCN4C3=O)CC2)c1` (stereo not drawn), the Ki at D(2) dopamine receptor is 22 nM; in assay [1] it was over 1000 nM; in assay [2] it was 27 nM.
